# In patent publication US4157392A, “Pharmacologically active substituted 1,2,4-triazines” (Diamond Shamrock Corporation, priority 1978, dated 1979):
# Counter-ions that a name gives are not always drawn. Like-named read-outs stand apart in the source and are kept apart here.
# System: phenylquinone writhing in mice
# Experiment: Phenylquinone Writhing Assay (analgesia)
# Assay type: in vivo, mouse (Carworth CF1 male mice)
# Conditions: Mus musculus, po, read-out: Phenylquinone Writhing Assay (% Control), percent analgesia; for responders at 60 mg/kg: 60 mg/kg oral; for responders at 25 mg/kg: 25 mg/kg oral; for responders at 50 mg/kg: 50 mg/kg oral; for responders at 100 mg/kg: 100 mg/kg oral; for responders at 30 mg/kg: 30 mg/kg oral; for responders at 75 mg/kg: 75 mg/kg oral
# Protocol: The phenylquinone writhing test was employed to evaluate analgesic activity according to the following procedure:
# Phenylquinone (phenyl-p-benzoquinone, No. 7104, Eastman Organic Chemicals) is made up as a 0.02% aqueous solution in 5% ethyl alcohol. Phenylquinone solutions are made up fresh twice daily. Standard reference agents and the test compounds are dissolved or suspended in a 0.25% methylcellulose solution. A control group consisting of ten mice (Carworth CF1 male mice) are administered the 0.02% phenylquinone solution at a dose of 0.25 ml/mouse. The mice are housed individually and observed closely for ten minutes for exhibition of writhing. The onset of writhing occurs within three minutes and 100% of the mice must writhe within ten minutes. Test compounds are administered orally to groups of ten mice. The volume given is 0.01 ml/gram of body weight. Activity can be studied at 15, 30, 60, and 120 minutes after oral administration. After the designated time interval of a dose group has elapsed, the mice are challenged with phenylquinone intraperitoneally. Complete blocking of the writhing syndrom for the ten minute observation period in any one mouse is considered a positive analgesic response for that mouse. Conversely, if any mouse writhes definitely once it is considered not to be protected. The number of mice not writhing in group multiplied by ten equals percent analgesia for that dose at that time interval.
SMILES,"responders at 100 mg/kg (0.25 h, 15 Min.) [%]","responders at 100 mg/kg (0.5 h, 30 Min.) [%]","responders at 100 mg/kg (1 h, 60 Min) [%]",also measured
"CSc1nncc(-c2cccc(Cl)c2)n1 [Example 15, 3-methylthio-5-(3'-chlorophenyl)-1,2,4-triazine]",–,–,–,"responders at 60 mg/kg (0.25 h, 15 Min.): 10%"
"COc1nncc(-c2cccs2)n1 [Example 66, 3-methoxy-5-(2'-thienyl)-1,2,4-triazine]",–,–,–,"responders at 25 mg/kg (0.25 h, 15 Min.): 20%; responders at 50 mg/kg (0.25 h, 15 Min.): 80%; responders at 60 mg/kg (0.25 h, 15 Min.): 100%; responders at 25 mg/kg (0.5 h, 30 Min.): 10%; responders at 50 mg/kg (0.5 h, 30 Min.): 50%; responders at 60 mg/kg (0.5 h, 30 Min.): 80%; responders at 50 mg/kg (1 h, 60 Min): 20%; responders at 60 mg/kg (1 h, 60 Min): 40%"
"NNc1nncc(-c2cccc(C(F)(F)F)c2)n1 [Example 67, 3-hydrazino-5-(3'-trifluoromethylphenyl)-1,2,4-triazine]",10,60,40,"responders at 50 mg/kg (0.25 h, 15 Min.): 70%; responders at 25 mg/kg (0.5 h, 30 Min.): 20%; responders at 50 mg/kg (0.5 h, 30 Min.): 30%; responders at 25 mg/kg (1 h, 60 Min): 10%; responders at 50 mg/kg (1 h, 60 Min): 30%"
"COc1cccc(-c2cnnc(SC)n2)c1 [Example 68, 3-methylthio-5-(3'-methoxyphenyl)-1,2,4-triazine]",–,–,–,"responders at 30 mg/kg (0.25 h, 15 Min.): 10%"
"COc1cccc(-c2cnnc(OC)n2)c1 [Example 69, 3-methoxy-5-(3'-methoxyphenyl)-1,2,4-triazine]",10,20,10,"responders at 50 mg/kg (0.25 h, 15 Min.): 10%; responders at 50 mg/kg (0.5 h, 30 Min.): 20%; responders at 50 mg/kg (1 h, 60 Min): 20%"
"CSc1nncc(-c2ccc(Cl)s2)n1 [Example 70, 3-methylthio-5-(5'-chloro-2'-thienyl)-1,2,4-triazine]",10,20,10,"responders at 50 mg/kg (0.25 h, 15 Min.): 10%; responders at 50 mg/kg (0.5 h, 30 Min.): 20%; responders at 50 mg/kg (1 h, 60 Min): 10%"
"CSc1nncc(-c2cccc3ccccc23)n1 [Example 71, 3-methylthio-5-(1'-naphthyl)-1,2,4-triazine]",–,10,20,–
"CSc1nncc(-c2ccc(C)cc2)n1 [Example 72, 3-methylthio-(4'-methylphenyl)-1,2,4-triazine]",20,–,–,–
"CSc1nncc(-c2ccc(Cl)cc2)n1 [Example 74, 3-methylthio-5-(4'-chlorophenyl)-1,2,4-triazine]",10,–,–,–
"COc1nncc(-c2cccc(Cl)c2)n1 [Example 75, 3-methoxy-5-(3'-chlorophenyl)-1,2,4-triazine]",–,–,–,"responders at 60 mg/kg (0.25 h, 15 Min.): 100%; responders at 60 mg/kg (0.5 h, 30 Min.): 90%; responders at 60 mg/kg (1 h, 60 Min): 70%"
"CSc1nnc(-c2ccco2)c(-c2ccco2)n1 [Example 76, 3-methylthio-5,6-bis-(2'-furyl)-1,2,4-triazine]",–,–,–,"responders at 30 mg/kg (0.25 h, 15 Min.): 10%"
"NNc1nnc(-c2ccco2)c(-c2ccco2)n1 [Example 77, 3-hydrazino-5,6-bis-(2'-furyl)-1,2,4-triazine]",–,–,–,"responders at 25 mg/kg (0.25 h, 15 Min.): 20%; responders at 75 mg/kg (0.25 h, 15 Min.): 20%; responders at 25 mg/kg (0.5 h, 30 Min.): 20%; responders at 75 mg/kg (0.5 h, 30 Min.): 10%; responders at 25 mg/kg (1 h, 60 Min): 20%; responders at 75 mg/kg (1 h, 60 Min): 10%"
"Cc1ccc(-c2nnc(C)nc2-c2ccc(C)cc2)cc1 [Example 78, 3-methyl-5,6-bis-(4'-methylphenyl)-1,2,4-triazine]",50,80,50,"responders at 50 mg/kg (0.25 h, 15 Min.): 20%; responders at 50 mg/kg (0.5 h, 30 Min.): 20%; responders at 50 mg/kg (1 h, 60 Min): 20%"
"Cc1nnc(S(C)(=O)=O)nc1C [Example 79, 3-methylsulfonyl-5,6-dimethyl-1,2,4-triazine]",–,30,30,–
"COc1ccc(-c2nnc(SC)nc2-c2ccc(OC)c(OC)c2)cc1OC [Example 80, 3-methylthio-5,6-bis(3',4'-dimethoxyphenyl)-1,2,4-triazine]",10,10,–,–
"c1ccc(-c2nnc(-c3ccccn3)nc2-c2ccccc2)cc1 [Example 81, 3-(2'-pyridyl)-5,6-diphenyl-1,2,4-triazine]",10,20,–,–

SMILES,"responders at 100 mg/kg (0.25 h, 15 Min.) [%]","responders at 100 mg/kg (0.5 h, 30 Min.) [%]","responders at 100 mg/kg (1 h, 60 Min) [%]",also measured
"COc1ncc(-c2ccccc2)nn1 [Example 82, 3-methoxy-6-phenyl-1,2,4-triazine]",–,–,–,"responders at 25 mg/kg (0.25 h, 15 Min.): 10%; responders at 50 mg/kg (0.25 h, 15 Min.): 10%; responders at 50 mg/kg (0.5 h, 30 Min.): 10%"
"COc1cc(-c2cnnc(SC)n2)ccc1OCc1ccccc1 [Example 83, 3-methylthio-5-(3'-methoxy-4'-benzyloxyphenyl)-1,2,4-triazine]",10,–,–,–
"CSc1nncc(-c2c3ccccc3cc3ccccc23)n1 [Example 84, 3-methylthio-5-(9'-anthracenyl)-1,2,4-triazine]",–,10,20,–
"COc1nncc(-c2c3ccccc3cc3ccccc23)n1 [Example 85, 3-methoxy-5-(9'-anthracenyl)-1,2,4-triazine]",10,–,–,–
"CSc1nncc(-c2ccc3c(c2)OCO3)n1 [Example 86, 3-methylthio-5-(3',4'-methylenedioxyphenyl)-1,2,4-triazine]",20,–,–,–
"CSc1nncc(C(c2ccccc2)c2ccccc2)n1 [Example 87, 3-methylthio-5-diphenylmethyl-1,2,4-triazine]",10,–,10,–
"CCOc1ccc(-c2cnnc(SC)n2)cc1 [Example 88, 3-methylthio-5-(4'-ethoxyphenyl)-1,2,4-triazine]",10,–,–,–
"COc1nncc(-c2c(C)cc(C)cc2C)n1 [Example 89, 3-methoxy-5-(2',4',6'-trimethylphenyl)-1,2,4-triazine]",10,–,10,–
"Oc1nncc(-c2ccccc2)n1 [Example 90, 3-hydroxy-5-phenyl-1,2,4-triazine]",–,–,20,–
"COc1ccc(-c2cnnc(OC)n2)cc1 [Example 91, 3-methoxy-5-(4'-methoxyphenyl)-1,2,4-triazine]",30,10,–,–
"COc1nnc(-c2ccc(OC)c(OC)c2)c(-c2ccc(OC)c(OC)c2)n1 [Example 92, 3-methoxy-5,6-bis(3',4'-dimethoxyphenyl)-1,2,4-triazine]",10,10,–,–
"COc1ccc(-c2nnc(SC)nc2-c2ccc(OC)cc2)cc1 [Example 93, 3-methylthio-5,6-bis(4'-methoxyphenyl)-1,2,4-triazine]",20,30,30,–
"CC(C)Oc1nnc(-c2ccccc2)c(-c2ccccc2)n1 [Example 95, 3-isopropoxy-5,6-diphenyl-1,2,4-triazine]",10,10,20,–
"COc1nnc(-c2ccc(Cl)cc2)c(-c2ccc(Cl)cc2)n1 [Example 96, 3-methoxy-5,6-bis(4'-chlorophenyl)-1,2,4-triazine]",–,30,10,–
"CC(N)C(=O)NNc1nncc(-c2ccc(Cl)cc2)n1 (stereo not shown) [Example 114, N2-(5-p-chlorophenyl-1,2,4-triazin-3-yl) alanine hydrazide (dihydrobromide hydrate)]",–,–,–,"responders at 50 mg/kg (0.25 h, 15 Min.): 50%; responders at 50 mg/kg (0.5 h, 30 Min.): 50%; responders at 50 mg/kg (1 h, 60 Min): 60%"
"NC(Cc1ccccc1)C(=O)NNc1nncc(-c2ccccc2)n1 (stereo not shown) [Example 116, N2-(5-phenyl-1,2,4-triazin-3-yl) phenylalanine hydrazide (dihydrobromide hydrate)]",30,60,60,–
